Measurements from patent US8614327B2 (Vertex Pharmaceuticals Incorporated, priority 2004, dated 2013).

Target: T1, ΔF508-CFTR (Homo sapiens, UniProt P13569, DEL508-508)
T1 construct: expressed in transfected cells
Assay: Membrane potential optical (FRET/VIPR) assay, identification of potentiator compounds
Assay type: cell-based
Details: Table 3, assay not given; for % Activity: relative efficacy
In short: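 Double-addition potentiator screen: compound delivered in gluconate-substituted Cl^--free medium, membrane potential followed via CC2-DMPE/DiSBAC2(3) FRET on VIPR. Cells were ΔF508-CFTR-expressing NIH3T3 mouse fibroblasts, held 2 h at 37° C. then 24 h at 27° C. before assay.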

T1 sequence (P13569 with tags, fused parts or gaps DEL508-508): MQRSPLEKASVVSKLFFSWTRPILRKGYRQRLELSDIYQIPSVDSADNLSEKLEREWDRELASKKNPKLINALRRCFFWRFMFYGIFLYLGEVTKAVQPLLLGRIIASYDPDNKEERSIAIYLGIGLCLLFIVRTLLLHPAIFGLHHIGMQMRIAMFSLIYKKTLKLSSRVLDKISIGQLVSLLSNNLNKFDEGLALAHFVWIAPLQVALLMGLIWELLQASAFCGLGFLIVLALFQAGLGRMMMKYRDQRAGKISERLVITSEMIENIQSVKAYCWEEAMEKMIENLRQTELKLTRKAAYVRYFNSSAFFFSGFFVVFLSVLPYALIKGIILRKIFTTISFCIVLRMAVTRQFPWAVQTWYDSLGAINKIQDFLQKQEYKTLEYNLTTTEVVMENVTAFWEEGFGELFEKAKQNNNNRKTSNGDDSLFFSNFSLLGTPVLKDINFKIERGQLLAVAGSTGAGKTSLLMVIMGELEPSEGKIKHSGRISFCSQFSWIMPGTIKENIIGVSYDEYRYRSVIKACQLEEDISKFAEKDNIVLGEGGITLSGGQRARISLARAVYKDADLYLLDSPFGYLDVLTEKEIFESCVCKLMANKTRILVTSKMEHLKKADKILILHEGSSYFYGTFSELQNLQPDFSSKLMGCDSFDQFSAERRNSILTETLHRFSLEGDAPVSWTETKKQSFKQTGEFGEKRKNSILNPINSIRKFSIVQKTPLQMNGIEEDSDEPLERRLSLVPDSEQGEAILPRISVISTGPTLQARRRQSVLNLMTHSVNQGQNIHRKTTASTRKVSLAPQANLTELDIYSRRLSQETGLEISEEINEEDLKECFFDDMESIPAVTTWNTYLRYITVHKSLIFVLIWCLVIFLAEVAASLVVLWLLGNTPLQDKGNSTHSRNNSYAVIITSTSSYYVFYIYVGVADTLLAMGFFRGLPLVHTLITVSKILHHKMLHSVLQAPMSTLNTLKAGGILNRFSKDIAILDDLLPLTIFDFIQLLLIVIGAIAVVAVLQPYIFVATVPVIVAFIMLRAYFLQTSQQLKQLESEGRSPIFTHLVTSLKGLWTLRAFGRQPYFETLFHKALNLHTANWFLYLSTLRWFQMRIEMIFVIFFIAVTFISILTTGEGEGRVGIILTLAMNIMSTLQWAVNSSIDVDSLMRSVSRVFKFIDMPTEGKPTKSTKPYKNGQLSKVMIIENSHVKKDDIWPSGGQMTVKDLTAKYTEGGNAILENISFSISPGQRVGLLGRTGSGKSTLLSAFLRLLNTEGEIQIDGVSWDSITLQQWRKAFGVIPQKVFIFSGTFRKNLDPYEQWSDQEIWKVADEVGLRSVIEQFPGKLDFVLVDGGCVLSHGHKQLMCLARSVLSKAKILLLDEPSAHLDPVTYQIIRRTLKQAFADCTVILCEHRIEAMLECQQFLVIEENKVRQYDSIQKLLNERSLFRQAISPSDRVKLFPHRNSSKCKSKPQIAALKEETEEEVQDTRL

| SMILES | EC50 | % Activity |
| --- | --- | --- |
| Cc1cccc2[nH]cc(C(=O)Nc3ccc(N4CCC(C)(C)C4)cc3C(F)(F)F)c(=O)c12 [Compound 578, N-[4-(3,3-dimethylpyrrolidin-1-yl)-2-(trifluoromethyl)phenyl]-5-methyl-4-oxo-1H-quinoline-3-carboxamide] | < 10 µM | ++ (between 25% to 100%) |
| COC(=O)c1cccc(-c2ccccc2NC(=O)c2c[nH]c3ccccc3c2=O)c1 [Compound 68, 3-[2-[(4-oxo-1H-quinolin-3-yl)carbonylamino]phenyl]benzoic acid methyl ester] | – | ++ (between 25% to 100%) |
| CC(C)(C)c1ccc(NC(=O)c2c[nH]c3ccccc3c2=O)c(C(C)(C)C)c1O [Compound 594, N-(3-hydroxy-2,4-ditert-butyl-phenyl)-4-oxo-1H-quinoline-3-carboxamide] | < 10 µM | +++ (>100%) |
| CC(C)(C)c1cc(C(F)(F)F)c(NC(=O)c2c[nH]c3ccc(F)cc3c2=O)cc1O [Compound 509, 6-fluoro-N-[5-hydroxy-4-tert-butyl-2-(trifluoromethyl)phenyl]-4-oxo-1H-quinoline-3-carboxamide] | < 10 µM | ++ (between 25% to 100%) |
| O=C(Nc1ccc(C(F)(F)F)c(O)c1)c1c[nH]c2ccc(F)cc2c1=O [Compound 650, 6-fluoro-N-[3-hydroxy-4-(trifluoromethyl)phenyl]-4-oxo-1H-quinoline-3-carboxamide] | < 10 µM | ++ (between 25% to 100%) |
| O=C(Nc1ccc2c(c1)NCCCC2)c1c[nH]c2ccccc2c1=O [Compound 10, 1,4-dihydro-N-(2,3,4,5-tetrahydro-1H-benzo[b]azepin-8-yl)-4-oxoquinoline-3-carboxamide] | < 10 µM | ++ (between 25% to 100%) |
| COc1c(C(=O)Nc2ccc(C(C)(C)C)c(O)c2)cnc2ccccc12 [Compound 415, N-(3-Hydroxy-4-tert-butyl-phenyl)-4-methoxy-quinoline-3-carboxamide] | < 10 µM | ++ (between 25% to 100%) |
| O=C(Nc1ccc(OC(F)(F)F)c(N2CCCC2)c1)c1c[nH]c2ccccc2c1=O [Compound 579, 4-oxo-N-[3-pyrrolidin-1-yl-4-(trifluoromethoxy)phenyl]-1H-quinoline-3-carboxamide] | < 10 µM | ++ (between 25% to 100%) |

Continued, values first:

| EC50 | % Activity | SMILES |
| --- | --- | --- |
| – | ++ (between 25% to 100%) | CCOC(=O)Nc1ccc(CC)c(NC(=O)c2c[nH]c3ccccc3c2=O)c1 [Compound 472, [4-ethyl-3-[(4-oxo-1H-quinolin-3-yl)carbonylamino]phenyl]aminoformic acid ethyl ester] |
| < 10 µM | ++ (between 25% to 100%) | CCc1ccccc1NC(=O)c1c[nH]c2ccccc2c1=O [Compound 72, N-(2-ethylphenyl)-4-oxo-1H-quinoline-3-carboxamide] |
| < 10 µM | ++ (between 25% to 100%) | CCc1cccc(C)c1NC(=O)c1c[nH]c2ccccc2c1=O [Compound 180, N-(2-ethyl-6-methyl-phenyl)-4-oxo-1H-quinoline-3-carboxamide] |
| < 10 µM | ++ (between 25% to 100%) | CCOc1ccccc1NC(=O)c1c[nH]c2ccccc2c1=O [Compound 380, N-(2-ethoxyphenyl)-4-oxo-1H-quinoline-3-carboxamide] |
| < 10 µM | ++ (between 25% to 100%) | CCCCc1ccc(NC(=O)c2c[nH]c3ccccc3c2=O)cc1 [Compound 324, N-(4-butylphenyl)-4-oxo-1H-quinoline-3-carboxamide] |
| 25 to 60 µM | + (<25%) | N#Cc1ccc(NC(=O)c2c[nH]c3ccccc3c2=O)cc1 [Compound 194, N-(4-cyanophenyl)-4-oxo-1H-quinoline-3-carboxamide] |
| < 10 µM | ++ (between 25% to 100%) | CC(C)c1ccc(N)cc1NC(=O)c1c[nH]c2ccccc2c1=O [Compound 101, N-(5-amino-2-isopropyl-phenyl)-4-oxo-1H-quinoline-3-carboxamide] |
